In the NIST ThermoML archive (doi:10.1021/je201140q):

Key:
[1] = refractive index (Na D-line) (dimensionless); details: 298.15 K; 101.33 kPa; Liquid; Standard Abbe refractometry
[2] = for surface tension liquid-gas: 303.15 K, Maximal bubble pressure; for vapor or sublimation pressure / Normal boiling temperature: Ebulliometric method (Recirculating still)
[3] = xn = mol fraction of the nth substance listed; details: for mass density: 298.15 K, 101.3 kPa, Liquid, Vibrating tube method; for surface tension liquid-gas: 303.15 K, Maximal bubble pressure

CCO [ethanol]
Details	refractive index	surface tension liquid-gas [mN/m]
[1]	1.36068	–
[2]	–	21.7

[2], Liquid
Details	vapor or sublimation pressure [kPa]
334.57 K	50
344.02 K	75
349.56 K	94

Details	Normal boiling temperature [°C]
[2], Liquid	78.30

CCO [ethanol] + C1CCOCC1
[3], x1 = 1
Details	mass density [kg/m3]	surface tension liquid-gas [mN/m]
–	785.11	21.7

C1CCOCC1 [tetrahydropyran]
Details	refractive index	surface tension liquid-gas [mN/m]
[1]	1.42	–
[2]	–	27.1

Details	mass density [kg/m3]
[2], 298.15 K, 101.3 kPa, Liquid, Vibrating tube method	879.03

[2], Liquid
Details	vapor or sublimation pressure [kPa]
312.59 K	18.01
319.62 K	24.01
325.36 K	30.01
331.7 K	38.01
336.4 K	45.01
339.33 K	50
339.98 K	51.01
344.26 K	59.01
347.64 K	66.01
350.74 K	73.01
351.53 K	75
353.61 K	80.01
356.29 K	87.01
358.81 K	94.01
358.85 K	94
361.55 K	102.11

Details	Normal boiling temperature [°C]
[2], Liquid	88.21

C1CCOCC1 [tetrahydropyran] + CCO
[3]
Details	mass density [kg/m3]	surface tension liquid-gas [mN/m]
x2 = 0	879.03	27.1
x2 = 0.03	877.14	–
x2 = 0.068	–	26.91
x2 = 0.115	871.86	–
x2 = 0.122	–	26.76
x2 = 0.193	866.85	–
x2 = 0.223	–	26.5
x2 = 0.299	859.54	–
x2 = 0.323	–	25.98
x2 = 0.42	–	25.34
x2 = 0.426	849.89	–
x2 = 0.496	844.01	–
x2 = 0.52	–	24.9
x2 = 0.599	834.65	–
x2 = 0.604	–	24.35
x2 = 0.622	–	24.24
x2 = 0.657	–	24.07
x2 = 0.707	–	23.81
x2 = 0.716	822.74	–
x2 = 0.722	–	23.64
x2 = 0.799	813.13	–
x2 = 0.821	–	23.01
x2 = 0.91	798.6	–
x2 = 0.918	–	22.42
x2 = 0.959	791.41	–
x2 = 0.963	–	22
